According to the NIST ThermoML archive (doi:10.1007/s10765-013-1469-0):

Key:
[1] = 101 kPa, Liquid; for viscosity: Concentric cylinders viscometry; for mass density: Vibrating tube method
[2] = refractive index (Na D-line) (dimensionless); details: 101.33 kPa, Liquid, Standard Abbe refractometry
[3] = refractive index (Na D-line) (dimensionless); xn = mol fraction of the nth substance listed; details: 101 kPa, Liquid, Standard Abbe refractometry, x1 = 1
[4] = xn = mol fraction of the nth substance listed; details: 101 kPa, Liquid, x1 = 1; for viscosity: Concentric cylinders viscometry; for mass density: Vibrating tube method

COCCOCCOCCOCCOC [2,5,8,11,14-pentaoxapentadecane]
Details | mass density, [1] [kg/m3] | refractive index, [2] | viscosity, [1] [mPa·s]
288.15 K | 1015.63 | 1.4345 | 4.341
293.15 K | 1011 | 1.43238 | 3.834
298.15 K | 1006.36 | 1.43027 | 3.38
303.15 K | 1001.73 | 1.42815 | 3.004
308.15 K | 997.104 | 1.42603 | 2.691
313.15 K | 992.481 | 1.42394 | 2.426
318.15 K | 987.859 | 1.42183 | 2.199
323.15 K | 983.234 | 1.41973 | 2.006
328.15 K | 978.613 | 1.41765 | 1.838
333.15 K | 973.989 | 1.41553 | 1.691

CCCCO [butan-1-ol]
Details | mass density, [1] [kg/m3] | refractive index, [2] | viscosity, [1] [mPa·s]
288.15 K | 813.407 | 1.40131 | 3.356
293.15 K | 809.621 | 1.39932 | 2.965
298.15 K | 805.804 | 1.39729 | 2.593
303.15 K | 801.964 | 1.39529 | 2.277
308.15 K | 798.091 | 1.39317 | 2.008
313.15 K | 794.181 | 1.39104 | 1.78
318.15 K | 790.229 | 1.38893 | 1.583
323.15 K | 786.228 | 1.38683 | 1.412
328.15 K | 782.172 | 1.38474 | 1.264
333.15 K | 778.056 | 1.38237 | 1.132

CCCCO [butan-1-ol] + COCCOCCOCCOCCOC
Details | mass density, [4] [kg/m3] | refractive index, [3] | viscosity, [4] [mPa·s]
288.15 K | 813.407 | 1.40131 | 3.356
293.15 K | 809.621 | 1.39932 | 2.965
298.15 K | 805.804 | 1.39729 | 2.593
303.15 K | 801.964 | 1.39529 | 2.277
308.15 K | 798.091 | 1.39317 | 2.008
313.15 K | 794.181 | 1.39104 | 1.78
318.15 K | 790.229 | 1.38893 | 1.583
323.15 K | 786.228 | 1.38683 | 1.412
328.15 K | 782.172 | 1.38474 | 1.264
333.15 K | 778.056 | 1.38237 | 1.132
